Results taken from ChEMBL document CHEMBL1201862, “PubChem BioAssay data set” (2004).
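Cultured in 96-well plates, cells were exposed to test compound for 48 hours across five concentrations. GI50 = concentration required for 50% inhibition of growth.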 The source made the active and inactive calls. Rule as the data show it: active = GI50 up to about 1.1 µM and inactive = higher.

Tests used:
Assay in all cases: NCI tumour cell line growth inhibition, 48 h
[1] = tested on: SF-268
[2] = tested on: HCT-15
[3] = tested on: PC-3
[4] = tested on: RPMI-8226
[5] = tested on: SNB-75
[6] = tested on: LOX IMVI
[7] = tested on: MCF7
[8] = tested on: UACC-257
[9] = tested on: HCT-116
[10] = tested on: NCI/ADR-RES
[11] = tested on: Malme-3M
[12] = tested on: U-251
[13] = tested on: UO-31
[14] = tested on: SK-OV-3
[15] = tested on: OVCAR-3
[16] = tested on: HT-29
[17] = tested on: SN12C
[18] = tested on: NCI-H460
[19] = tested on: OVCAR-8
[20] = tested on: KM12
[21] = tested on: SF-539
[22] = tested on: HL-60
[23] = tested on: 786-0
[24] = tested on: SK-MEL-28
[25] = tested on: MDA-MB-435
[26] = tested on: CCRF-CEM
[27] = tested on: K562
[28] = tested on: T47D
[29] = tested on: MDA-N
[30] = tested on: A549
[31] = tested on: A498
[32] = tested on: SK-MEL-5
[33] = tested on: MDA-MB-231
[34] = tested on: NCI-H23
[35] = tested on: NCI-H522
[36] = tested on: HOP-62
[37] = tested on: OVCAR-5
[38] = tested on: MOLT-4
[39] = tested on: SW-620
[40] = tested on: TK-10
[41] = tested on: UACC-62
[42] = tested on: NCI-H226
[43] = tested on: M14
[44] = tested on: SK-MEL-2
[45] = tested on: ACHN
[46] = tested on: HOP-92
[47] = tested on: CAKI-1
[48] = tested on: COLO 205
[49] = tested on: HCC 2998
[50] = tested on: Hs-578T
[51] = tested on: SF-295
[52] = tested on: OVCAR-4
[53] = tested on: SNB-19
[54] = tested on: DU-145
[55] = tested on: EKVX
[56] = tested on: SR

COc1ccc(N(CN2C(=O)CCC2C(=O)O)C(C)=O)cc1 (stereo unspecified)
GI50 [1]: > 100 µM (inactive)
GI50 [2]: > 100 µM
GI50 [3]: > 100 µM (inactive)
GI50 [4]: > 100 µM (inactive)
GI50 [5]: > 100 µM (inactive)
GI50 [6]: > 100 µM (inactive)
GI50 [7]: > 100 µM (inactive)
GI50 [8]: > 100 µM (inactive)
GI50 [9]: > 100 µM (inactive)
GI50 [10]: > 100 µM (inactive)
GI50 [11]: > 100 µM (inactive)
GI50 [12]: > 100 µM (inactive)
GI50 [13]: > 100 µM (inactive)
GI50 [14]: > 100 µM (inactive)
GI50 [15]: > 100 µM (inactive)
GI50 [16]: > 100 µM (inactive)
GI50 [17]: > 100 µM (inactive)
GI50 [18]: > 100 µM (inactive)
GI50 [19]: > 100 µM (inactive)
GI50 [20]: > 100 µM (inactive)
GI50 [21]: > 100 µM (inactive)
GI50 [22]: > 100 µM (inactive)
GI50 [23]: > 100 µM (inactive)
GI50 [24]: > 100 µM (inactive)
GI50 [25]: > 100 µM (inactive)
GI50 [26]: > 100 µM (inactive)
GI50 [27]: > 100 µM (inactive)
GI50 [28]: > 100 µM (inactive)
GI50 [29]: > 100 µM (inactive)
GI50 [30]: > 100 µM (inactive)
GI50 [31]: > 100 µM (inactive)
GI50 [32]: > 100 µM (inactive)
GI50 [33]: > 100 µM (inactive)
GI50 [34]: > 100 µM (inactive)
GI50 [35]: > 100 µM (inactive)
GI50 [36]: > 100 µM (inactive)
GI50 [37]: > 100 µM (inactive)
GI50 [38]: 65.5 µM (inactive)
GI50 [39]: > 100 µM (inactive)
GI50 [40]: > 100 µM (inactive)
GI50 [41]: > 100 µM (inactive)
GI50 [42]: > 100 µM (inactive)
GI50 [43]: > 100 µM (inactive)
GI50 [44]: > 100 µM (inactive)
GI50 [45]: > 100 µM (inactive)
GI50 [46]: > 100 µM (inactive)
GI50 [47]: > 100 µM (inactive)
GI50 [48]: > 100 µM (inactive)
GI50 [49]: > 100 µM (inactive)
GI50 [50]: > 100 µM (inactive)
GI50 [51]: > 100 µM (inactive)
GI50 [52]: > 100 µM (inactive)
GI50 [53]: > 100 µM (inactive)
GI50 [54]: > 100 µM (inactive)
GI50 [55]: > 100 µM (inactive)

O=C1CCC[C@H]2O[C@@H](COCc3ccccc3)C[C@@H]12
GI50 [1]: > 100 µM (inactive)
GI50 [2]: > 100 µM
GI50 [3]: > 100 µM (inactive)
GI50 [4]: > 100 µM (inactive)
GI50 [5]: > 100 µM (inactive)
GI50 [7]: > 100 µM (inactive)
GI50 [8]: > 100 µM (inactive)
GI50 [9]: > 100 µM (inactive)
GI50 [10]: > 100 µM (inactive)
GI50 [12]: > 100 µM (inactive)
GI50 [13]: > 100 µM (inactive)
GI50 [14]: > 100 µM (inactive)
GI50 [15]: > 100 µM (inactive)
GI50 [16]: > 100 µM (inactive)
GI50 [17]: > 100 µM (inactive)
GI50 [18]: > 100 µM (inactive)
GI50 [19]: > 100 µM (inactive)
GI50 [20]: > 100 µM (inactive)
GI50 [21]: > 100 µM (inactive)
GI50 [22]: > 100 µM (inactive)
GI50 [23]: > 100 µM (inactive)
GI50 [24]: > 100 µM (inactive)
GI50 [25]: > 100 µM (inactive)
GI50 [26]: > 100 µM (inactive)
GI50 [27]: > 100 µM (inactive)
GI50 [28]: > 100 µM (inactive)
GI50 [56]: > 100 µM (inactive)
GI50 [29]: > 100 µM (inactive)
GI50 [30]: > 100 µM (inactive)
GI50 [31]: > 100 µM (inactive)
GI50 [32]: > 100 µM (inactive)
GI50 [33]: > 100 µM (inactive)
GI50 [34]: > 100 µM (inactive)
GI50 [36]: > 100 µM (inactive)
GI50 [37]: > 100 µM (inactive)
GI50 [38]: > 100 µM (inactive)
GI50 [39]: > 100 µM (inactive)
GI50 [40]: > 100 µM (inactive)
GI50 [41]: > 100 µM (inactive)
GI50 [42]: > 100 µM (inactive)
GI50 [43]: > 100 µM (inactive)
GI50 [44]: > 100 µM (inactive)
GI50 [45]: > 100 µM (inactive)
GI50 [46]: > 100 µM (inactive)
GI50 [47]: > 100 µM (inactive)
GI50 [48]: > 100 µM (inactive)
GI50 [50]: > 100 µM (inactive)
GI50 [51]: > 100 µM (inactive)
GI50 [52]: > 100 µM (inactive)
GI50 [53]: > 100 µM (inactive)
GI50 [54]: > 100 µM (inactive)
